Each structure is given as a SMILES string.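 Each compound was tested at five concentrations against cells in 96-well plates for 48 hours. TGI: total growth inhibition.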

Test systems include SK-MEL-28 melanoma; RPMI-8226 leukemia; OVCAR-8 ovarian; SK-MEL-2 melanoma; UACC-257 melanoma; U251 CNS; BT-549 breast; SF-295 CNS; NCI-H460 lung; K-562 leukemia; HL-60(TB) leukemia; HCT-116 colon; CAKI-1 renal; PC-3 prostate; A498 renal; HT29 colon.
Common to all, as to test: growth of human tumour cells (NCI), 48 h

In the case of `CC[C@@]1(O)C(=O)OCc2c1c(Cl)c1n(c2=O)Cc2cc3ccccc3nc2-1`, the TGI was > 100 µM with SK-MEL-28 melanoma; > 100 µM with RPMI-8226 leukemia; 22.9 µM with OVCAR-8 ovarian; 52.7 µM in the experiment on SK-MEL-2 melanoma; 26.7 µM in the experiment with UACC-257 melanoma; 11.5 µM in the experiment on U251 CNS. The TGI in the experiment with BT-549 breast was > 47.7 µM; in the experiment with SF-295 CNS, 18 µM; in the experiment with NCI-H460 lung, 4.25 µM; in the experiment on K-562 leukemia, > 100 µM; with HL-60(TB) leukemia, > 26.3 µM; in the experiment with HCT-116 colon, 8.76 µM. Moreover, the TGI was 16.4 µM with CAKI-1 renal, > 100 µM in the experiment on PC-3 prostate, 8.45 µM in the experiment on A498 renal and > 100 µM in the experiment with HT29 colon.

On to `CCOc1ccc(C2c3[nH]c4ccccc4c3CCN2C(=O)c2cccs2)cc1` (stereo unspecified), for which the TGI in the experiment with SK-MEL-28 melanoma, in the experiment on RPMI-8226 leukemia, in the experiment with OVCAR-8 ovarian, in the experiment on SK-MEL-2 melanoma, in the experiment with UACC-257 melanoma and in the experiment on U251 CNS was > 100 µM throughout. Further, the TGI in the experiment on BT-549 breast is > 100 µM; in the experiment on SF-295 CNS, > 100 µM; in the experiment on NCI-H460 lung, 32.8 µM; in the experiment with K-562 leukemia, > 100 µM; in the experiment on HL-60(TB) leukemia it was > 100 µM; in the experiment with HCT-116 colon it was > 100 µM. The TGI with CAKI-1 renal, with PC-3 prostate, with A498 renal and in the experiment with HT29 colon was > 100 µM each time.

As for `O=C(CNC(=O)OCc1ccccc1)NCCCCC(NC(=O)OCc1ccccc1)C(=O)O` (stereo unspecified), the TGI in the experiment on SK-MEL-28 melanoma, with RPMI-8226 leukemia, in the experiment with OVCAR-8 ovarian, in the experiment on SK-MEL-2 melanoma, in the experiment with UACC-257 melanoma and in the experiment on U251 CNS was > 100 µM throughout. For the same compound, the TGI in the experiment with BT-549 breast, with SF-295 CNS, in the experiment on NCI-H460 lung, in the experiment with K-562 leukemia, in the experiment on HL-60(TB) leukemia and in the experiment on HCT-116 colon was > 100 µM in each case. Moreover, the TGI in the experiment on CAKI-1 renal, in the experiment on PC-3 prostate, in the experiment with A498 renal and in the experiment with HT29 colon was > 100 µM throughout.

Consider `Cc1ccc2c(c1)C(C1Cc3c(C)cccc3C1=O)OC2=O` (stereo unspecified), for which the TGI in the experiment with SK-MEL-28 melanoma, with RPMI-8226 leukemia, with OVCAR-8 ovarian, with SK-MEL-2 melanoma, in the experiment on UACC-257 melanoma and with U251 CNS was > 100 µM in each case. In addition, the TGI with BT-549 breast, in the experiment with SF-295 CNS, in the experiment with NCI-H460 lung, in the experiment with K-562 leukemia, with HL-60(TB) leukemia and with HCT-116 colon was > 100 µM in each case. Further, the TGI in the experiment with CAKI-1 renal, in the experiment on PC-3 prostate, with A498 renal and with HT29 colon was > 100 µM throughout.

In the case of `N#Cc1cnn2c1n[n+]([O-])c1ccc(Cl)cc12`, the TGI in the experiment on SK-MEL-28 melanoma is 27.7 µM; in the experiment on RPMI-8226 leukemia, > 100 µM; in the experiment with OVCAR-8 ovarian, > 42.9 µM; in the experiment with SK-MEL-2 melanoma, 17.2 µM; in the experiment with UACC-257 melanoma, 23 µM; in the experiment with U251 CNS, 32.8 µM. Besides, the TGI was 25.4 µM in the experiment on BT-549 breast; 29.6 µM in the experiment with SF-295 CNS; 26.5 µM in the experiment with NCI-H460 lung; 3.91 µM in the experiment on K-562 leukemia; 6.52 µM in the experiment with HL-60(TB) leukemia; 22.7 µM in the experiment with HCT-116 colon. The TGI came out at 2.53 µM with CAKI-1 renal, 32.1 µM in the experiment with PC-3 prostate, 46 µM with A498 renal and 21.7 µM in the experiment with HT29 colon.

Turning to `CC(=O)NNC=N/C(C#N)=C(\N)C#N`, the TGI in the experiment with SK-MEL-28 melanoma, in the experiment on RPMI-8226 leukemia, in the experiment with OVCAR-8 ovarian, with SK-MEL-2 melanoma, in the experiment on UACC-257 melanoma and in the experiment on U251 CNS was > 100 µM throughout. The TGI in the experiment on BT-549 breast, in the experiment on SF-295 CNS, with NCI-H460 lung, with K-562 leukemia, with HL-60(TB) leukemia and in the experiment on HCT-116 colon was > 100 µM each time. In addition, the TGI in the experiment with CAKI-1 renal, with PC-3 prostate, in the experiment with A498 renal and in the experiment with HT29 colon was > 100 µM throughout.

Turning to `COc1c(O)cc(/C=C/c2cc(O)cc3c2[C@@]2(C(=O)O3)c3c(O)cc(O)cc3OC2c2cccc(O)c2)cc1O` (stereo partly specified), the TGI with SK-MEL-28 melanoma was > 100 µM; in the experiment on RPMI-8226 leukemia, 52.8 µM; with OVCAR-8 ovarian, > 100 µM; in the experiment with SK-MEL-2 melanoma it was > 100 µM; with UACC-257 melanoma, > 100 µM; with U251 CNS, > 100 µM. The TGI is > 100 µM with BT-549 breast; 31.9 µM in the experiment with NCI-H460 lung; 91.9 µM in the experiment with K-562 leukemia; 69.1 µM in the experiment with HL-60(TB) leukemia; > 100 µM in the experiment with HCT-116 colon; > 100 µM in the experiment with CAKI-1 renal. Further, the values for the TGI with PC-3 prostate, in the experiment with A498 renal and in the experiment on HT29 colon were > 100 µM, > 100 µM and 81.8 µM, respectively.

Turning to `CC1CCCc2c(-c3ccc(Cl)cc3)nc(N)c(C#N)c21` (stereo unspecified), the TGI in the experiment with SK-MEL-28 melanoma is > 100 µM; in the experiment with RPMI-8226 leukemia, 37.9 µM; with OVCAR-8 ovarian, 91.6 µM; with SK-MEL-2 melanoma, 67.6 µM; in the experiment with UACC-257 melanoma it was 61.5 µM; in the experiment on U251 CNS, > 100 µM. In addition, the TGI in the experiment with BT-549 breast was 53.4 µM; in the experiment with NCI-H460 lung, 81.4 µM; in the experiment with K-562 leukemia, 93.5 µM; in the experiment with HL-60(TB) leukemia, > 100 µM; in the experiment with HCT-116 colon, > 100 µM; with CAKI-1 renal it was > 100 µM. Also, the results for the TGI in the experiment with PC-3 prostate, in the experiment with A498 renal and with HT29 colon were 82 µM, 89 µM and > 100 µM, respectively.

Take `COc1ccc(NC(=O)C2=C(SC)C(C#N)C(=O)N=C2N)cc1` (stereo unspecified): the TGI with SK-MEL-28 melanoma, in the experiment with RPMI-8226 leukemia, with SK-MEL-2 melanoma, in the experiment on UACC-257 melanoma, in the experiment with U251 CNS and in the experiment with BT-549 breast was > 100 µM each time. The TGI in the experiment on SF-295 CNS, with NCI-H460 lung, in the experiment with K-562 leukemia, in the experiment with HL-60(TB) leukemia, in the experiment on HCT-116 colon and in the experiment on CAKI-1 renal was > 100 µM in each case. In addition, the TGI with PC-3 prostate, in the experiment on A498 renal and with HT29 colon was > 100 µM in each case.

These data come from PubChem BioAssay (NCI).
